Results reported in patent US10696898B2, “Reverse photochromic compound” (FUJIFILM Wako Pure Chemical Corporation, priority 2017, dated 2020).

Experiments:
[1] = Evaluation of solubility and compatibility of compound 8 (Experiment Example 8); assay type: physicochemical; details: 20° C.
Experimental: The solubility and the compatibility of the compound 8 obtained in Example 2 were evaluated in the following manner.
In other words, 100 mg of the compound 8 was weighed in a glass container (manufactured by NICHIDEN RIKA GLASS CO., LTD.), 10 mg of various organic solvents were added thereto in a state in which the temperature thereof was maintained to 20° C., and the solution was stirred for 10 minutes. In a case where the solid content remained, the operation of adding 10 mg of the organic solvents and stirring the solution for 10 minutes was repeated, and the amount (A mg) of the organic solvents to be used at the time of complete dissolution of the compound 8 was measured. The solubility (%) was acquired based on the value of A mg using the following equation. Solubility (%)=100 mg/(100 mg+A mg)×100

[2] = Evaluation of solvent dependence of reverse photochromic characteristics of compound 8 (Experiment Example 5); assay type: physicochemical
Experimental: The solvent dependence of the reverse photochromic characteristics of the compound 8 was evaluated in the following manner.
Various solutions of the compound 8 obtained in Example 2 were prepared using the following methods (1-1) to (1-7).
(§1) First, 1.2 mg (8.7×10^−7 mol) of the compound 8 was weighed in a vial bottle (glass bottle), and 9 mL of methanol was added thereto to prepare a solution having a concentration of 1.0×10^−4 mol/L. The obtained solution was poured into another vial bottle (glass bottle) and further diluted with methanol to prepare a methanol solution containing the compound 8 with a concentration of 5.6×10^0.5 mol/L.
as §1, with “toluene” for “methanol”, “9.3×10^−5” for “1.0×10^−4”, “1.9×10^−5” for “5.6×10^0.5”
as §1, with “10” for “9”, “acetonitrile” for “methanol”, “8.7×10^−5” for “1.0×10^−4”, “an acetonitrile” for “a methanol”, “2.2×10^−5” for “5.6×10^0.5”
as §1, with “1.1” for “1.2”, “(8.0×10^7′” for “(8.7×10^−7”, “10” for “9”, “chloroform” for “methanol”, “8.0×10^−5” for “1.0×10^−4”, “1.8×10^−5” for “5.6×10^0.5”
First, 1.5 mg […] of the compound 8 was weighed in a vial bottle (glass bottle), and 10 mL of o-dichlorobenzene was added thereto to prepare a solution having a concentration of 1.1×10^−4 mol/L. The obtained solution was poured into another vial bottle (glass bottle) and further diluted with o-dichlorobenzene to prepare an o-dichlorobenzene solution containing the compound 8 with a concentration of 2.2×10^−5 mol/L.
First, 1.3 mg (9.7×10^−7 mol) of the compound 8 was weighed in a vial bottle (glass bottle), and 10 mL of 2-propanol was added thereto to prepare a saturated solution. The supernatant of the obtained saturated solution was poured into another vial bottle (glass bottle) and further diluted with 2-propanol by three times to prepare a 2-propanol solution containing the compound 8.
as §1, with “1.4” for “1.2”, “(1.0×10^0.6” for “(8.7×10^−7”, “10” for “9”, “chlorobenzene” for “methanol”, “2.0×10^−5” for “5.6×10^0.5”
Various solutions containing the compound 8 obtained in the preparation (1) were put into a quartz cell having an optical path length of 1 cm together with a stirring bar, the solutions were irradiated with light while being stirred for 5 minutes under a condition of an irradiation intensity of 1 SUN (AM 1.5, 1000 W/m^2) using a solar simulator (product name: LAX-C100, manufactured by Asahi Spectra Co., Ltd.), and the absorbance of each solution at the maximum absorption wavelength was measured using a spectrophotometer (product name: V-670, manufactured by Jasco Corporation). Thereafter, the quartz cell was stored in a dark place, the absorbance at every fixed interval time was measured, and the temporal change of the absorbance of each solution at the maximum absorption wavelength was confirmed. […]

Solubility (%) ([1]; Epoxy resin (jER ®)): 11%
Solubility (%) ([1]; organic solvent: 1-Methoxy-2-propanol (PGME)): 38%
Solubility (%) ([1]; organic solvent: Dibutyl sebacate (DBS)): 20%
Solubility (%) ([1]; organic solvent: Ethyl acetate (AcOEt)): 50%
Solubility (%) ([1]; organic solvent: Methyl ethyl ketone (MEK)): 50%
Solubility (%) ([1]; organic solvent: Methyl methacrylate (MMA)): 50%
Solubility (%) ([1]; organic solvent: Toluene, 100 mg/(100 mg+A mg)×100): 50%
Solubility (%) ([1]; organic solvent: Triethyl phosphate (TEP)): 31%
maximum absorption wavelength ([2]; 2-propanol solution): 639 nm
maximum absorption wavelength ([2]; acetonitrile solution): 626 nm
maximum absorption wavelength ([2]; chlorobenzene solution): 659 nm
maximum absorption wavelength ([2]; chloroform solution): 650 nm
maximum absorption wavelength ([2]; methanol solution): 632 nm
maximum absorption wavelength ([2]; o-dichlorobenzene solution): 659 nm
maximum absorption wavelength ([2]; toluene solution): 653 nm
SMILES: C=C(C)C(=O)OCCOC(=O)c1ccccc1-c1c2ccc(=[N+](CC)CC)cc-2oc2c1CCC/C2=C\c1ccc2c(c1)c1ccccc1n2CC [compound 8]
